Experiments:
C57BL/6 mice [1] = assay: 28-day repeated dose toxicity study; conditions: oral 20 or 40 mg/kg daily, 28 days
Procedure: 28-day repeated dose toxicity study: To evaluate toxicity of UroA and UAS03, we performed 28-days repeated dose toxicity study. Mice were fed (oral gavage) with UroA (20 and 40 mg/kg/day) and UAS03 (20 and 40 mg/kg/day) daily for 28 days. Body weight, food and water intake were assessed weekly. After 28 days, mice were sacrificed and gross examination of all major organs were performed. Blood was collected to obtain serum. Serum alanine aminotransferase (ALT) and asparate aminotransferase (AST) were analyzed using ALT/AST kit (BioVision) as per instructional manual.

HeLa cells = assay: Autophagy induction (RFP-GFP-LC3); assay type: cell-based; conditions: 2 hours treatment
Procedure: Autophagy induction after compound treatment for 2 hours is assessed by the presence of red and green punctate inside the cells. The HeLa cells were transfected with RFP-GFP-LC3 plasmid 48 hours prior to drug treatments. After drug treatment for 2 hours the cells are fixed and imaged. LC3 is a protein that is expressed on autophagosomes and is seen as green puncta. When the autophagosome and lysosome fuse to form autolysosomes, the acidic pH inside of it causes degradation of GFP protein and only red puncta are visible (FIG. 26).

AhR^−/− mice = assay: TNBS-induced colitis in AhR^−/− mice; assay type: in vivo, mouse; conditions: 20 mg/kg every 12 h; for serum IL-6 in AhR^−/− mice / serum TNF-α in AhR^−/− mice / shortening of colon lengths in AhR^−/− mice: 60 h post TNBS
Procedure: FIG. 8: UroA/UAS03 exert beneficial activities through AhR-dependent pathways. (A-F) Colitis was induced using TNBS in C57BL/6 (WT) and AhR^−/− mice (n=4/group 7-8 week old age). Mice were treated with Veh or UroA/UAS03 (20 mg/kg bodyweight) every 12 h post TNBS administration and mice were euthanized at post 60 h TNBS administration. (A) TNBS-induced colitis experimental design and treatment regimen. (B) Percent body weight loss (No TNBS-Solid black line; Veh+TNBS− Solid red line; UroA+TNBS− Solid blue line; UAS03+TNBS− Solid purple line), (C) representative colon images, (D) colon lengths, (E) gut permeability, (F) serum levels of IL-6 and TNF-α were determined. Statistical analysis was performed (unpaired t-test) using Graphpad Prism software. Error bars, ±SEM ***p<0.001; **p<0.01 *p<0.05. (G) AhR-Nrf2 dependent tight junction protein regulation by UroA/UAS03. UroA/UAS03 (L:ligands) bind to AhR and activate its nuclear translocation to induce expression of Cyp1A1 and Nrf2. […] (H) LPS (50 ng/ml)-induced IL-6 levels were measured in the presence of Vehicle or UroA or UAS03 (0.1, 1, 10, 20, 30 and 50 μM) in bone marrow derived macrophages (BMDM) from wild type (WT), Nrf2^−/− and AhR^−/− mice. The data is representative of two independent experiments with triplicates. Statistical analysis was performed (unpaired t-test) using Graphpad Prism software. Error bars, ±SEM ***p<0.001; **p<0.01 *p<0.05.
2,4,6-Trinitrobenzenesulfonic acid (TNBS)-induced colitis: Male C57BL/6 or Nrf2^−/− mice (6-8 week old age mice) were anesthetized with ketamine/xylazine (100 mg/12.5 mg/kg IP) mixture and administered with single dose of TNBS (2.5 mg/mice; Sigma Aldrich, USA) in 50% ethanol. After administration of TNBS, mice were held upside down for 30-60 sec to ensure proper distribution of TNBS in the colon. Control group received 50% ethanol without TNBS. Mice with TNBS were randomly divided into three groups, viz. vehicle (0.25% sodium carboxymethylcellulose (CMC)), UroA and UAS03. UroA or UAS03 was resuspended in 0.25% sodium-CMC at desired concentrations. The mice were given orally Veh or UroA or UAS03 in 100 μl at desired concentrations (4 or 20 mg/kg/body weight). The treatment started after 12 hours of TNBS administration and every 12 hours thereafter up to 72 hours. The experiment was terminated post 60 h TNBS, where AhR^−/− mice were involved. In some experiments, we treated only once at post 12 h TNBS administration. TNBS administered and control mice were euthanized for tissue and plasma collection after 80 hours of TNBS/ethanol treatment. Mice were examined for colitis phenotype.

C57BL/6 mice [2] = assay: DSS-induced chronic colitis; assay type: in vivo, mouse; conditions: 4 cycles of 2% DSS; for colon weight/length ratio / expression of Cldn4 in colons / inflammation (serum IL-6, IL-10, TNF-α, colonic tissue MPO levels) / shortening of colons: 20 mg/kg/day; for DSS-induced chronic colitis: 20 mg/kg/day on 4th and 6th day of each cycle

Row | SMILES | serum AST and ALT levels at day 28 (C57BL/6 mice [1]) | signs of toxicity (body weights, CBC counts, serum ALT and AST) (C57BL/6 mice [1]) | autophagy induction (HeLa cells) | rapid body weight loss in AhR^−/− mice treated with TNBS (AhR^−/− mice) | serum IL-6 in AhR^−/− mice (AhR^−/− mice) | serum TNF-α in AhR^−/− mice (AhR^−/− mice) | shortening of colon lengths in AhR^−/− mice (AhR^−/− mice) | colon weight/length ratio (C57BL/6 mice [2]) | expression of Cldn4 in colons (C57BL/6 mice [2]) | inflammation (serum IL-6, IL-10, TNF-α, colonic tissue MPO levels) (C57BL/6 mice [2]) | shortening of colons (C57BL/6 mice [2]) | DSS-induced chronic colitis (C57BL/6 mice [2])
1 | Oc1ccc2c(c1)COc1cc(O)ccc1-2 [UAS03, 6H-benzo[c]chromene-3,8-diol] | no significant differences | did not exhibit any signs of toxicity | induce autophagy | some protective role | did not appear to reduce IL-6 | slightly reduced | did not appear to protect | increased colon weight/length ratio | enhanced the expression of Cldn4 | reduced inflammation | reduced shortening of colons | protected from DSS-induced colitis
2 | O=c1oc2cc(O)ccc2c2ccc(O)cc12 [UroA, 3,8-dihydroxy-6H-dibenzo[b,d]pyran-6-one] | no significant differences |  | induce autophagy |  | did not appear to reduce IL-6 | slightly reduced | did not appear to protect | increased colon weight/length ratio | enhanced the expression of Cldn4 | reduced inflammation | reduced shortening of colons | protected from DSS-induced colitis

— patent publication US12377069B2, “Compounds, compositions, methods of using, and methods for preparing compounds” (UNIVERSITY OF LOUISVILLE RESEARCH FOUNDATION, INC., priority 2018, dated 2025)
